Data as given in patent US8124793B2, “Derivatives of ethylene methanedisulfonate as cancer chemotherapeutic agents” (priority 2007, dated 2012).

Assays:
Format in all cases: cell-based
human cancer cells = experiment: NCI screen summary over the cancers tested (negative growth of human cancer cells); conditions: cancers with negative growth / cancers tested
Procedure: (§1) In the NCI screening process, each compound was tested and described by a minimum of 60 data points. The test data include, but are not limited to the type of cancer, the molar concentration used in the screen, and the percent growth of the cancer. In some cases, NMR and elemental analysis were used for structural assignment.
The derivatives in the tables are grouped using the same category as in the tables 1-6.

EKVX = experiment: NCI screen, growth of human tumor cells: Non-Small Cell Lung EKVX; conditions: EKVX
Procedure: as §1

HOP-18 = experiment: NCI screen, growth of human tumor cells: Non-Small Cell Lung HOP-18
Procedure: as §1

NCI-H226 = experiment: NCI screen, growth of human tumor cells: Non-Small Cell Lung NCI-H226
Procedure: as §1

RPMI-8226 = experiment: NCI screen, growth of human tumor cells: Leukemia RPMI-8226; conditions: RPMI-8226 (Leukemia), 10^−4 molar
Procedure: as §1

CAKI-1 = experiment: NCI screen, growth of human tumor cells: Renal Cancer CAKI-1; conditions: CAKI-1 (Renal Cancer), 10^−4 molar
Procedure: as §1

CCRF-CEM = experiment: NCI screen, growth of human tumor cells: Leukemia CCRF-CEM; conditions: CCRF-CEM (Leukemia), 10^−4 molar
Procedure: as §1

UACC-62 = experiment: NCI screen, growth of human tumor cells: Melanoma UACC-62; conditions: UACC-62 (Melanoma), 10^−4 molar
Procedure: as §1

HOP-62 = experiment: NCI screen, growth of human tumor cells: Non-Small Cell Lung HOP-62; conditions: HOP-62 (Non-Small Cell Lung), 10^−4 molar
Procedure: as §1

SR = experiment: NCI screen, growth of human tumor cells: Leukemia SR; conditions: SR (Leukemia), 10^−4 molar
Procedure: as §1

KM12 = experiment: NCI screen, growth of human tumor cells: Colon Cancer KM12
Procedure: as §1

SK-MEL-2 = experiment: NCI screen, growth of human tumor cells: Melanoma SK-MEL-2; conditions: SK-MEL-2 (Melanoma), 10^−4 molar
Procedure: as §1

SF-295 = experiment: NCI screen, growth of human tumor cells: CNS Cancer SF-295
Procedure: as §1

`C[Si](C)(OCCS(=O)(=O)[O-])C(=C1S(=O)(=O)OCCOS1(=O)=O)c1cccc2ccccc12.[Na+]` [MWC 95-8] was tested, and the “Percentage of cancers showing negative growth cancers tested” value (“Percentage” below) (human cancer cells; 10^−4 M conc.) was 10^−4 M conc. = 0/1 = 0%.

With `Cc1ccc(S(=O)(=O)NC(=O)C2S(=O)(=O)OCCOS2(=O)=O)cc1` [NSC 648303, ethylene(4-methylbenzenesulfonamidocarbonyl)methanedisulfonate] the “% Growth” value (EKVX; 10^−4 molar) was 59%, the “% Growth” value (EKVX; 10^−5 molar) was 66% and the “% Growth” value (EKVX; 10^−6 molar) was 69%. The “% Growth” value (EKVX; 10^−7 molar) was 67%, the “% Growth” value (EKVX; 10^−8 molar) was 57% and the “% Growth” value (HOP-18; HOP-18, 10^−4 molar) was 69%. The “% Growth” value (HOP-18; HOP-18, 10^−5 molar) was 43%, the “% Growth” value (HOP-18; HOP-18, 10^−6 molar) was 39% and the “% Growth” value (HOP-18; HOP-18, 10^−7 molar) was 33%. For the same compound, the “% Growth” value (HOP-18; HOP-18, 10^−8 molar) was 31%, the “Percentage” value (human cancer cells; 10^−4 M conc.) was 10^−4 M conc. = 0/3 = 0% and the “% Growth” value (NCI-H226; NCI-H226, 10^−4 molar) was 16%. For the same compound, the “% Growth” value (NCI-H226; NCI-H226, 10^−5 molar) was 37%, the “% Growth” value (NCI-H226; NCI-H226, 10^−6 molar) was 51% and the “% Growth” value (NCI-H226; NCI-H226, 10^−7 molar) was 55%. For the same compound, the “% Growth” value (NCI-H226; NCI-H226, 10^−8 molar) was 53%.

In the case of `O=S1(=O)OCCOS(=O)(=O)C1(Cl)Cl` [NSC 648307], the “percent of growth of human tumor cells” value (RPMI-8226) is reported as 21%, the “percent of growth of human tumor cells” value (CAKI-1) is reported as 23% and the “Percentage” value (human cancer cells; 10^−4 M conc.) is reported as 10^−4 M conc. = 0/5 = 0%. The “percent of growth of human tumor cells” value (CCRF-CEM) was 29%, the “percent of growth of human tumor cells” value (UACC-62) was 7% and the “percent of growth of human tumor cells” value (NCI-H226; NCI-H226 (Non-Small Cell Lung), 10^−4 molar) was 23%.

With `COC(=O)/C=C(\C(=O)OC)C1C(=O)Oc2c(C)c(=O)c3ccccc3n21` (centres unmarked) [NSC 670993] the “percent of growth of human tumor cells” value (HOP-62) was −53%.

In the case of `CCCCCCCCOCC1S(=O)(=O)OCCOS1(=O)=O` [NSC 671535], the “Percentage” value (human cancer cells; 10^−4 M conc.) is reported as 10^−4 M conc. = 0/1 = 0% and the “percent of growth of human tumor cells” value (SR) is reported as 5%.

`O=C1c2ccccc2C(=O)N1CC1S(=O)(=O)OCCOS1(=O)=O` [NSC 671536] was tested, and the “Percentage” value (human cancer cells; 10^−4 M conc.) was 10^−4 M conc. = 0/2 = 0%, the “% Growth” value (KM12; KM12, 10^−4 molar) was 50% and the “% Growth” value (KM12; KM12, 10^−5 molar) was 42%. For the same compound, the “% Growth” value (KM12; KM12, 10^−6 molar) was 39%, the “% Growth” value (KM12; KM12, 10^−7 molar) was 59% and the “% Growth” value (KM12; KM12, 10^−8 molar) was 40%. The “percent of growth of human tumor cells” value (SR) was 15%.

For `O=C(O)c1ccccc1C(=O)NCC1S(=O)(=O)OCCOS1(=O)=O` [NSC 671537, ethylene (2-carboxy-benzoyl)-N-2-ethane-1,1-disulfonate], the “Percentage” value (human cancer cells; 10^−4 M conc.) was 10^−4 M conc. = 0/1 = 0%, the “% Growth” value (KM12; KM12, 10^−4 molar) was 62% and the “% Growth” value (KM12; KM12, 10^−5 molar) was 54%. The “% Growth” value (KM12; KM12, 10^−6 molar) was 45%, the “% Growth” value (KM12; KM12, 10^−7 molar) was 61% and the “% Growth” value (KM12; KM12, 10^−8 molar) was 41%.

With `CN(C)C(=N)N=C(N)N.CS(C)=O.[Cl][Pt][Cl]` [NSC 671543] the “percent of growth of human tumor cells” value (SK-MEL-2) was 30%.

With `O=C(c1ccc2ccccc2c1)C1(I)S(=O)(=O)OCCOS1(=O)=O` [NSC 679046] the “% Growth” value (SF-295; SF-295, 10^−4 molar) was −52%, the “% Growth” value (SF-295; SF-295, 10^−5 molar) was −58% and the “% Growth” value (SF-295; SF-295, 10^−6 molar) was −65%. The “% Growth” value (SF-295; SF-295, 10^−7 molar) was −56%, the “% Growth” value (SF-295; SF-295, 10^−8 molar) was 51% and the “Percentage” value (human cancer cells; 10^−4 M conc.) was 100%. The “Percentage” value (human cancer cells; 10^−5 M conc.) was 100%, the “Percentage” value (human cancer cells; 10^−6 M conc.) was 100% and the “Percentage” value (human cancer cells; 10^−7 M conc.) was 100%. For the same compound, the “Percentage” value (human cancer cells; 10^−8 M conc.) was 0%.
